According to patent US7163940B2, “Pyrazolopyridinyl pyrimidine therapeutic compounds” (SmithKline Beecham Corporation, priority 2000, dated 2007):

Test system: HSV-1
Experiment: HSV-1 replication in infected Vero 76 cells, viral DNA hybridization capture assay
Format: cell-based
Settings: Human alphaherpesvirus 1, Vero 76, HSV-1, Vero 76 cells, MOI=0.001, 40–48 hours incubation
Protocol: Vero 76 cells were maintained in MEM with Earle's salts, L-glutamine, 8% FBS (Hyclone, A-1111-L) and 100 units/mL Penicillin-100 μg/mL Streptomycin. For assay conditions, FBS was reduced to 2%. Cells are seeded into 96-well tissue culture plates at a density of 5×10^4 cells/well after being incubated for 45 min at 37° C. in the presence of HSV-1 or HSV-2 (MOI=0.001). Test compounds are added to the wells and the plates are incubated at 37° C. for 40–48 hours. Cell lysates are prepared as follows: media was removed and replaced with 150 μL/well 0.2 N NaOH with 1% Igepal CA 630 or NP-40. Plates were incubated up to 14 days at room temperature in a humidified chamber to prevent evaporation. • (b) Preparation of Detection DNA.
For the detection probe, a gel-purified, digoxigenin-labeled, […] PCR fragment of the HSV UL-15 sequence was utilized. PCR conditions included 0.5 μM primers, 180 μM dTP, 20 μM dUTP-digoxigenin (Boehringer Mannheim 1558706), 200 μM each of dATP, dCTP, and dGTP, 1×PCR Buffer II (Perkin Elmer), 2.5 mM MgCl2, 0.025 units/μL of AmpliTaq Gold polymerase (Perkin Elmer), and 5 ng of gel-purified HSV DNA per 100 μL. Extension conditions were 10 min at 95° C., followed by 30 cycles of 95° C. for 1 min, 55° C. for 30 sec, and 72° C. for 2 min. The amplification was completed with a 10-min incubation at 72° C. Primers were selected to amplify a 728 bp probe spanning a section of the HSV1 UL15 open reading frame (nucleotides 249–977). Single-stranded transcripts were purified with Promega M13 Wizard kits. The final product was mixed 1:1 with a mixture of 6 M GuSCN, 100 mM EDTA and 200 μg/mL herring sperm DNA and stored at 4° C. • (c) Preparation of Capture Plates.
The capture DNA plasmid (HSV UL13 region in pUC) was linearized by cutting with Xba I, denatured for 15 min at 95° C. and diluted immediately into Reacti-Bind DNA Coating Solution (Pierce, 17250, diluted 1:1 with TE buffer, pH 8) at 1 ng/μL 75 μL/well were added to Corning (#3922 or 9690) white 96-well plates and incubated at room temperature for at least 4 hrs before washing twice with 300 μL/well 0.2×SSC/0.05% Tween-20 (SSC/T buffer). The plates were then incubated overnight at room temperature with 150 μL/well 0.2 N NaOH, 1% IGEPAL and 10 μg/mL herring sperm DNA. • (d) Hybridization.
Twenty-seven (27) μL of cell lysate was combined with 45 μL of hybridization solution (final concentration: 3M GuSCN, 50 mM EDTA, 100 μg/ml salmon sperm DNA, 5× Denhardt's solution, 0.25×APE, and 5 ng of the digoxigenin-labeled detection probe). APE is 1.5 M NH4-acetate, 0.15 M ammonium phosphate, and 5 mM EDTA adjusted to pH 6.0. Mineral oil (50 μL) was added to prevent evaporation. The hybridization plates were incubated at 95° C. for 10 minutes to denature the DNA, then incubated at 42° C. overnight. The wells were washed 6× with 300 μL/well SSC/T buffer then incubated with 75 μL/well anti-digoxigenin-HRP-conjugated antibody (Boehringer Mannheim 1207733, 1:5000 in TE) for 30 min at room temperature. The wells were washed 6× with 300 μL/well with PBS/0.05% Tween-20 before 75 μL/well SuperSignal LBA substrate (Pierce) was added. The plates were incubated at room temperature for 30 minutes and chemiluminescence was measured in a Wallac Victor reader. • e) Results.
The following results were obtained for HSV-1.

Compared with `CN(C)Cc1cc(-c2c(-c3ccc(F)cc3)nn3c(Cl)cccc23)nc(NC2CCCC2)n1` [Example 50, 4-[7-Chloro-2-(4-fluorophenyl)pyrazolo[1,5-α]pyridin-3-yl]-N-cyclopentyl-6-[(dimethylamino)methyl]-2-pyrimidinamine], `Fc1ccc(-c2nn3c(Cl)cccc3c2-c2ccnc(NC3CCCC3)n2)cc1` [Example 26, 4-[7-Chloro-2-(4-fluorophenyl)pyrazolo[1,5-α]pyridin-3-yl]-N-cyclopentyl-2-pyrimidinamine] is 3.3-fold lower in IC50: 5 µM for the first, 1.5 µM for the second.

Going from `CCCCNc1cccc2c(-c3ccnc(N4CCOCC4)n3)c(-c3ccc(F)cc3)nn12` [Example 40, N-Butyl-2-(4-fluorophenyl)-3-[2-(4-morpholinyl)-4-pyrimidinyl]pyrazolo[1,5-α]pyridin-7-amine] to `CCCCNc1nccc(-c2c(-c3ccc(F)cc3)nn3c(NCCN4CCOCC4)cccc23)n1` [Example 47, 3-[2-(Butylamino)-4-pyrimidinyl]-2-(4-fluorophenyl)-N-[2-(4-morpholinyl)ethyl]pyrazolo[1,5-α]pyridin-7-amine], the IC50 falls from 15 µM to 0.4 µM (38-fold).

Compared with `Nc1cccc2c(-c3ccnc(NC4CCCC4)n3)c(-c3ccc(F)cc3)nn12` [Example 21, 3-[2-(Cyclopentylamino)-4-pyrimidinyl]-2-(4-fluorophenyl)pyrazolo[1,5-α]pyridin-7-amine], `Cc1cc(-c2c(-c3ccc(F)cc3)nn3c(N)cccc23)nc(NC2CCCC2)n1` [Example 72, 3-[2-(Cyclopentylamino)-6-methylpyrimidin-4-yl]-2-(4-fluorophenyl)pyrazolo[1,5-α]pyridin-7-amine] is 4.4-fold higher in IC50: 1 µM for the first, 4.4 µM for the second. The first is the more potent here.

Going from `CCCCNc1cccc2c(-c3ccnc(OCC(F)(F)F)n3)c(-c3ccc(F)cc3)nn12` [Example 68, N-Butyl-2-(4-fluorophenyl)-3-[2-(2,2,2-trifluoroethoxy)pyrimidin-4-yl]pyrazolo[1,5-α]pyridin-7-amine] to `CCCCNc1cccc2c(-c3ccnc(N4CCN(CCO)CC4)n3)c(-c3ccc(F)cc3)nn12` [Example 41, 2-(4-{4-[7-(Butylamino)-2-(4-fluorophenyl)pyrazolo[1,5-α]pyridin-3-yl]-2-pyrimidinyl}-1-piperazinyl)ethanol], the IC50 falls from over 20 µM to 6 µM.

Compared with `Fc1ccc(-c2nn3c(NC4CCCC4)cccc3c2-c2ccnc(NC3CCCC3)n2)cc1` [Example 1, N-cyclopentyl-3-[2-(cyclopentylamino)-4-pyrimidinyl]-2-(4-fluorophenyl)pyrazolo[1,5-α]pyridin-7-amine], `Fc1ccc(-c2nn3c(NC4CCCC4)cccc3c2-c2cc(NC3CCCC3)ncn2)cc1` [Example 84, N-cyclopentyl-3-[6-(cyclopentylamino)pyrimidin-4-yl]-2-(4-fluorophenyl)pyrazolo[1,5-α]pyridin-7-amine] is 4.3-fold higher in IC50: 0.3 µM for the first, 1.3 µM for the second. The first is the more potent here.

Going from `CCCCNc1nccc(-c2c(-c3ccc(F)cc3)nn3c(-c4ccco4)cccc23)n1` [Example 78, N-Butyl-4-[2-(4-fluorophenyl)-7-(2-furyl)pyrazolo[1,5-α]pyridin-3-yl]pyrimidin-2-amine] to `Fc1ccc(-c2nn3c(Cl)cccc3c2-c2ccnc(-c3ccccc3)n2)cc1` [Example 73, 7-Chloro-2-(4-fluorophenyl)-3-(2-phenylpyrimidin-4-yl)pyrazolo[1,5-α]pyridine], the IC50 rises from 0.95 µM to over 20 µM. The first is the more potent here.

Compared with `CSc1cccc2c(-c3cc(NC4CCCC4)ncn3)c(-c3ccc(F)cc3)nn12` [Example 83, N-Cyclopentyl-6-[2-(4-fluorophenyl)-7-(methylthio)pyrazolo[1,5-α]pyridin-3-yl]pyrimidin-4-amine], `CN(CC(=O)O)c1nccc(-c2c(-c3ccc(F)cc3)nn3c(NC4CCCC4)cccc23)n1` [Example 18, [{4-[7-(Cyclopentylamino)-2-(4-fluorophenyl)pyrazolo[1,5-α]pyridin-3-yl]-2-pyrimidinyl}(methyl)amino]acetic acid] is 15-fold higher in IC50: 1.3 µM for the first, 20 µM for the second.

Compared with `Fc1ccc(-c2nn3c(Br)cccc3c2-c2ccncc2)cc1` [Example 61, 7-Bromo-2-(4-fluorophenyl)-3-pyridin-4-ylpyrazolo[1,5-α]pyridine], `CN(C)c1nccc(-c2c(-c3ccc(F)cc3)nn3c(N4CCCC4)cccc23)n1` [Example 32, 4-[2-(4-Fluorophenyl)-7-(1-pyrrolidinyl)pyrazolo[1,5-α]pyridin-3-yl]-N,N-dimethyl-2-pyrimidinamine] is lower in IC50: over 20 µM for the first, 5 µM for the second.

Compared with `NCCNc1cccc2c(-c3cc(-c4ccccc4)nc(NC4CCCC4)n3)c(-c3ccc(F)cc3)nn12` [Example 20, N′-[3-[2-(Cyclopentylamino)-6-phenyl-4-pyrimidinyl]-2-(4-fluorophenyl)pyrazolo[1,5-α]pyridin-7-yl]-1,2-ethanediamine], `O=C(NC1CCCC1)c1cc(-c2c(-c3ccc(F)cc3)nn3c(NC4CCCC4)cccc23)nc(NC2CCCC2)n1` [Example 75, N-Cyclopentyl-2-(cyclopentylamino)-6-[7-(cyclopentylamino)-2-(4-fluorophenyl)pyrazolo[1,5-α]pyridin-3-yl]pyrimidine-4-carboxamide] is higher in IC50: 3 µM for the first, over 20 µM for the second. The first is the more potent here.

Test system: not given
Experiment: not given
Settings: not given

Work on `CN(C)Cc1cc(-c2c(-c3ccc(F)cc3)nn3c(Cl)cccc23)nc(NC2CCCC2)n1` [Example 50, 4-[7-Chloro-2-(4-fluorophenyl)pyrazolo[1,5-α]pyridin-3-yl]-N-cyclopentyl-6-[(dimethylamino)methyl]-2-pyrimidinamine] yielded a melting point of 68 to 75 °C.
